In patent US10106853B2, “CUL4B as predictive biomarker for cancer treatment” (CORNELL UNIVERSITY, priority 2012, dated 2018):

Assays:
Assay type in all cases: cell-based, Human
BT474 cells [1] = experiment: XTT assay for cytotoxic response to camptothecin, BT474
Method: FIG. 2. CUL4B interacted with Top1 and induced Top1 degradation in the presence of CPT. A) Knockdown of CUL4B impaired CPT-induced Top1 degradation. BT474 cells were infected with lentiviral shCUL4B, shCUL4A or control non-targeting shRNA, and selected for stable CUL4B^k/d or CUL4A^k/d cells upon treatment with puromycin. Following treatment with CPT (50 μM) for 1 hour, cells were replenished with CPT-free fresh medium and incubated at 37° C. for 30 minutes. Top1 degradation was assessed by immunoblotting with an anti-Top1 antibody. Levels of α-tubulin were measured as a loading control. B) Association of CUL4B with Top1 following CPT treatment. […] Top1 degradation was assessed by immunoblotting with the anti-Top1 antibody. Levels of α-tubulin were measured as a loading control. […] Statistical significance in cellular response to CPT between control BT474 cells and CUL4A^k/d or CUL4B^k/d cells were assessed by a two-tailed unpaired student t-test (***: p<0.001). […] Statistical significance in cellular response to camptothecin between control cells and CUL4A^k/d or CUL4B^k/d BT474 cells are assessed by student's t-test.
Synchronized cells were seeded into 96-well microplates. […] The optical density was measured with a microplate reader. […] Data were expressed as the mean±S.E. Difference in the survival ratios between the two cell lines at each concentration point was assessed by the student's T test. […]

BT474 cells [2] = experiment: Apoptosis by Western blotting of cleaved caspase-3 and PARP; conditions: CUL4B-silenced BT474 cells vs control cells
Method: FIG. 4. Marked enhancement of apoptosis in BT474-CUL4B^k/d cells following CPT treatment. A, B) Control (shCtrl) or CUL4B^k/d BT474 (shCUL4B) cells were treated with indicated concentrations of CPT for 72 hours (A) or 100 nM CPT for 1, 2 and 3 days (B). Cells were then lysed and immunoblotted with antibodies against native or cleaved caspase 3 or PARP to measure the induction of apoptosis. C) Control, CUL4A^k/d and CUL4B^k/d BT474 cells were treated with 100 nM CPT for 3 days. Cell lysates were prepared and immunoblotted with antibodies against native or cleaved PARP.
DNA double stranded breaks are one of the most cytotoxic lesions as persistence of γH2AX foci after the initial induction of DNA damage leads to apoptosis. To examine whether CUL4B knockdown affects the sensitivity of breast cancer cells to CPT-induced apoptosis, BT474 cells were treated with CPT and analyzed for induction of apoptosis, as exemplified by cleavage of caspase-3 and PARP.

BT474 cells [3] = experiment: XTT Cell Proliferation Assay, growth rate of BT474 cells in vitro; conditions: knockdown cells vs control, no drug
Method: FIG. 5. CUL4B inactivation sensitized BT474 xenograft tumors to topotecan. Stable TGL-BT474 cells (BT474 cells stably expressing GFP-luciferase reporter) were established by retroviral transduction and FACS sorting. The resulting TGL-BT474 cells were infected with recombinant lentiviruses expressing non-targeting shCtrl, shCUL4A or shCUL4B, followed by selection of infected cells with 4 μg/ml puromycine for one week. A) Knockdown of endogenous CUL4A and 4B were verified by immunoblotting. […] Statistical significance in tumor burden between control and CUL4A^k/d or CUL4B^k/d xenograph are assessed by a two-tailed unpaired student t-test (***: p<0.001). […] The same number of control, CUL4A^k/d and CUL4B^k/d BT474 cells were seeded to 96-well plates and cell proliferation was measured using the XTT Cell Proliferation Assay Kit. […] Statistical significance in cellular rate between control cells and CUL4A^k/d or CUL4B^k/d cells are assessed by student's t-test. […] 1×10^7 of control, CUL4A^k/d or CUL4B^k/d TGL-BT474 cells were injected subcutaneously in the right flank of each mouse of athymic Nu/J nude mice, and tumor burden was measured by bioluminescent imaging (E). On the 22nd day, tumors were collected, and the weight of exercised tumors was measured after mice were sacrificed (F).

Compound | Survival rate of CPT-treated cells (BT474 cells [1]; BT474 cells with knockdown of CUL4A) | Cytotoxic killing by CPT (cell survival) (BT474 cells [1]; BT474 cells with knockdown of CUL4B, CPT three days) | Induction of apoptosis (cleaved caspase-3 and PARP) post-CPT treatment (BT474 cells [2]) | Growth rate of cultured BT474 cells in vitro (BT474 cells [3])
CC[C@@]1(O)C(=O)OCc2c1cc1n(c2=O)Cc2cc3ccccc3nc2-1 [CPT, (S)-4-ethyl-4-hydroxy-1H-pyrano[3′,4′:6,7]indolizino[1,2-b]quinoline-3,14-(4H, 12H)-dione] | no effect | sensitized | robust induction of apoptosis | 
shCUL4B: lentiviral shRNA CUL4B sequence purchased from Sigma Aldrich, reduces CUL4B expression (CCGGGCAGAATTTAAAGAGGGTAAACTCGAGTTTACCCTCTTTAAATTCTGCTTTTT) |  |  |  | no effect
